Measured values reported in patent US12250946B2, “Antifungal composition having excellent antifungal activity even at low temperature” (Korea University Research and Business Foundation, priority 2020, dated 2025).

Tested on: Candida albicans biofilms
Test: Biofilm inhibitory activity by confocal laser scanning microscopy (SYTO 9 / PI staining)
Assay type: cell-based
Conditions: 5 minutes treatment, 1.2 mM each component
Method: Candida albicans biofilms were formed on a stainless-steel coupon. Specifically, the […] were immersed in 90% (v/v) ethanol for 30 minutes for decontamination of stainless-steel coupons (1.5×1.0 cm2) and washed with sterile distilled water. Then, stainless-steel coupons were placed in a 12-well tissue culture plate containing 4.95 mL of SDB enrichment medium, and 50 uL of the mixed suspensions of albicans were dispensed and cultured at 30° C. for 48 hours to form Candida albicans biofilms. After forming the biofilm on each coupon, weakly attached cells, not the biofilm, were separated using 0.85% sterile physiological saline.
The antifungal activity of the antimicrobial mixture of the present disclosure was confirmed through confocal laser scanning microscopy analysis. For the biofilms of Candida species treated with each antimicrobial mixture, intact cells were stained with green fluorescent SYTO®9 (S-34854, Molecular Probes™, Thermo Fisher Scientific Inc., Pittsburgh, PA, USA; final concentration: 6.7 μM; excitation: 488 nm, emission: 498/501 nm), and damaged cells were detected by staining with red fluorescent propidium iodide (PI; P3566, Molecular Probes™; final concentration: 15 μM; excitation: 555 nm, emission: 617 nm). […]

SMILES: CC(O)CO (centres unmarked) [compound 2, propylene glycol]
- damage to the fungal cell membrane in the biofilms (SYTO 9 green / PI red fluorescence) (5° C., FIGS. 4A-4F): did not show significant damage to the fungal cell membrane
- damage to the fungal cell membrane in the biofilms (SYTO 9 green / PI red fluorescence) (22° C., FIGS. 5A-5F): did not show significant damage to the fungal cell membrane
